Reference: PMC9653409, “Generative deep learning enables the discovery of a potent and selective RIPK1 inhibitor” (Nature Communications, 2022)
Like-named read-outs stand apart in the source and are kept apart here.

Experiments:
Experiment in all cases: Kinase inhibitory activity profiling of RI-962@10 µM (406 kinases, Eurofins)
Format in all cases: biochemical
[1] = biological target: panel of human kinases (kinase named in endpoint) (Homo sapiens, UniProt O00238); settings: 10 µM; read-out: Activity (%), ALK6(h)
How it was run: (§1)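 Radiometric filter-binding kinase assays: enzyme preincubated 15 min with compound in 8 mM MOPS pH 7.0, 0.2 mM EDTA, 250 μM peptide substrate, 10 mM magnesium acetate, 10 μM [γ-33P]-ATP. Reaction started with Mg/ATP, run 40 min at room temperature, stopped with phosphoric acid; 33P incorporation read by scintillation counting. Other kinases by similar protocols.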

[2] = biological target: panel of human kinases (kinase named in endpoint) (Homo sapiens, UniProt O60674); settings: 10 µM; read-out: Activity (%), JAK2(h)
How it was run: as §1

[3] = biological target: panel of human kinases (kinase named in endpoint) (Homo sapiens, UniProt O75460); settings: 10 µM; read-out: Activity (%), IRE1(h)
How it was run: as §1

[4] = biological target: panel of human kinases (kinase named in endpoint) (Homo sapiens, UniProt O94806); settings: 10 µM; read-out: Activity (%), PKD3(h)
How it was run: as §1

[5] = biological target: panel of human kinases (kinase named in endpoint) (Homo sapiens, UniProt P06213); settings: 10 µM
panel of human kinases (kinase named in endpoint) (Homo sapiens, UniProt P06213), sequence (P06213 28-1382): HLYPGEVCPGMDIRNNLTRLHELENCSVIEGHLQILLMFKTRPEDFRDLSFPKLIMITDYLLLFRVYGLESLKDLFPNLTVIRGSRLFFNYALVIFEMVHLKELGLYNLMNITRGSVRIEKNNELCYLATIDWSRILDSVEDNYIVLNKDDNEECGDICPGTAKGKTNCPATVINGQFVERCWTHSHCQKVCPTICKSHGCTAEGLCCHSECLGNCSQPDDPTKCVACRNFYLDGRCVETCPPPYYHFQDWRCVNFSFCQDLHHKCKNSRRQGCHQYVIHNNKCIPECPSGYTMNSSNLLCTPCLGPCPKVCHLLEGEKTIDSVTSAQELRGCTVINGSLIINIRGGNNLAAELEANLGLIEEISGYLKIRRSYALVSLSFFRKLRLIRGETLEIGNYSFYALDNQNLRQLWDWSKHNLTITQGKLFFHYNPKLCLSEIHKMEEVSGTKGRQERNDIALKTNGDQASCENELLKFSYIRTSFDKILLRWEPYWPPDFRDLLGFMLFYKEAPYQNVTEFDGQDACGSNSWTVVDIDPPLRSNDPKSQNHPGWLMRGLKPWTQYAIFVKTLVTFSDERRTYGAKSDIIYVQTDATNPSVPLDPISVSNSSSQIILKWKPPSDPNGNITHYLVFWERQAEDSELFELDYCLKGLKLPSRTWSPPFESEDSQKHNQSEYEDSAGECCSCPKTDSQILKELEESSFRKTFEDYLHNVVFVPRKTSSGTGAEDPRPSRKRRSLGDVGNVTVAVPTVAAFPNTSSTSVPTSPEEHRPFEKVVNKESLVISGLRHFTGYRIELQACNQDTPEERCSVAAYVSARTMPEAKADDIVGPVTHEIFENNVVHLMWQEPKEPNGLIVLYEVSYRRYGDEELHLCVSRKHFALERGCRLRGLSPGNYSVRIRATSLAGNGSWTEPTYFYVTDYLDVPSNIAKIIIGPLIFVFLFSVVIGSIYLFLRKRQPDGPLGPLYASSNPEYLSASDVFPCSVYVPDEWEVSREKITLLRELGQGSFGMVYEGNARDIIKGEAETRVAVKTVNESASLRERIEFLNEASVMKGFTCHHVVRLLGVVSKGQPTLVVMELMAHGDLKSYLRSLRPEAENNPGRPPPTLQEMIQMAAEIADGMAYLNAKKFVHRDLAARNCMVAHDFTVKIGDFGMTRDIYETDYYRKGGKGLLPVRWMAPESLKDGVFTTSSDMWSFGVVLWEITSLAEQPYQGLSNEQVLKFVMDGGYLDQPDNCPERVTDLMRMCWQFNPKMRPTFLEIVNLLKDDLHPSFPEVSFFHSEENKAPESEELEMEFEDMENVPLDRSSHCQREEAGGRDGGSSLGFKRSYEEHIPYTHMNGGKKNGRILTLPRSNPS
How it was run: as §1

[6] = biological target: panel of human kinases (kinase named in endpoint) (Homo sapiens, UniProt P06239); settings: 10 µM
panel of human kinases (kinase named in endpoint) (Homo sapiens, UniProt P06239), sequence (P06239 whole entry): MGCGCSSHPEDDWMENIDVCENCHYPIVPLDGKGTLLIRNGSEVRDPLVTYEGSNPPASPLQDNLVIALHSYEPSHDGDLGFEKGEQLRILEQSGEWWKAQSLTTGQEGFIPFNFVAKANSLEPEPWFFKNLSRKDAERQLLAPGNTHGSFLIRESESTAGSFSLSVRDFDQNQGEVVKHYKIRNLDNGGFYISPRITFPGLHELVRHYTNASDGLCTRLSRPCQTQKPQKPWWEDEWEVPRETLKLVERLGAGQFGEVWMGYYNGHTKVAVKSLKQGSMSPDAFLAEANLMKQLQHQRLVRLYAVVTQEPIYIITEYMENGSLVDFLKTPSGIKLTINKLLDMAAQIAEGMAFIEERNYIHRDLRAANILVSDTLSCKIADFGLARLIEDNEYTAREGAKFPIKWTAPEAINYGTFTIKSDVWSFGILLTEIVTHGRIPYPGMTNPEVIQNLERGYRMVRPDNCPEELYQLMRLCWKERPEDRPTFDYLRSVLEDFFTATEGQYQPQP
How it was run: as §1

[7] = biological target: panel of human kinases (kinase named in endpoint) (Homo sapiens, UniProt P07948); settings: 10 µM; read-out: Activity (%), Lyn(h)
panel of human kinases (kinase named in endpoint) (Homo sapiens, UniProt P07948), sequence (P07948 whole entry): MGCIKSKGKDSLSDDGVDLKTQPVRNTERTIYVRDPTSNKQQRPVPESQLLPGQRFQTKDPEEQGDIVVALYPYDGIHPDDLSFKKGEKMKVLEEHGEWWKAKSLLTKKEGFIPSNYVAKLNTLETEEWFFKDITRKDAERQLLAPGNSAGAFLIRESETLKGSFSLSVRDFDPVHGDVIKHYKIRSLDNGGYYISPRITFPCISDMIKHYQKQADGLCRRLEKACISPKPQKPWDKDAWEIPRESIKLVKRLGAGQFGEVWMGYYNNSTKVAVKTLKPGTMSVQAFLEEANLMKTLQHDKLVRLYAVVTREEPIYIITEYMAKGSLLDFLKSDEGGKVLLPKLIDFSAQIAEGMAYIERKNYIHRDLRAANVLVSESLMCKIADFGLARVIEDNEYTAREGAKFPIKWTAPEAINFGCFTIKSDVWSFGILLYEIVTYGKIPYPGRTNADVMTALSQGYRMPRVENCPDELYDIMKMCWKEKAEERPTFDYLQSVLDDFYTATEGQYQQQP
How it was run: as §1

[8] = biological target: panel of human kinases (kinase named in endpoint) (Homo sapiens, UniProt P12931, T341M); settings: 10 µM; read-out: Activity (%), Src(T341M)(h)
How it was run: as §1

[9] = biological target: panel of human kinases (kinase named in endpoint) (Homo sapiens, UniProt P49761); settings: 10 µM; read-out: Activity (%), CLK3(h)
How it was run: as §1

[10] = biological target: panel of human kinases (kinase named in endpoint) (Homo sapiens, UniProt P78527); settings: 10 µM; read-out: Activity (%), DNA-PK(h)
How it was run: as §1

[11] = biological target: panel of human kinases (kinase named in endpoint) (Homo sapiens, UniProt Q02763, R849W); settings: 10 µM; read-out: Activity (%), Tie2(R849W)(h)
How it was run: as §1

[12] = biological target: panel of human kinases (kinase named in endpoint) (Homo sapiens, UniProt Q09013); settings: 10 µM; read-out: Activity (%), DMPK(h)
panel of human kinases (kinase named in endpoint) (Homo sapiens, UniProt Q09013), sequence (Q09013 whole entry): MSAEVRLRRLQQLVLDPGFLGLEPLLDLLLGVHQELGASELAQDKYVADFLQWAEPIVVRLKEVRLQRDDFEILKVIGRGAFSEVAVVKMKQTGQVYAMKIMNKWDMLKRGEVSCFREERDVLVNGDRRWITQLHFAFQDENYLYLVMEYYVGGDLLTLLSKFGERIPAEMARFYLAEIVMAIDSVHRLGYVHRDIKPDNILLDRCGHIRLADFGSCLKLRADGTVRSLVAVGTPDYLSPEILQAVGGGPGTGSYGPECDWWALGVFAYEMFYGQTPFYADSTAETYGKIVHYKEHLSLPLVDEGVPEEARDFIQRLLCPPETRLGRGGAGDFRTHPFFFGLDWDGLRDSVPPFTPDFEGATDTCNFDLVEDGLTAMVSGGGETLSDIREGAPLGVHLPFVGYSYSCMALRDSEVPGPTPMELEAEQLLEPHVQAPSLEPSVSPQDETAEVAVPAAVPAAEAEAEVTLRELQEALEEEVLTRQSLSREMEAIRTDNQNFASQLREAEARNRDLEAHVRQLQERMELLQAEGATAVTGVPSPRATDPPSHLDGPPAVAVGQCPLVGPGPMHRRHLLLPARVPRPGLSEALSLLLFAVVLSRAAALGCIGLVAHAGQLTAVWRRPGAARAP
How it was run: as §1

[13] = biological target: panel of human kinases (kinase named in endpoint) (Homo sapiens, UniProt Q13557); settings: 10 µM; read-out: Activity (%), CaMKIIδ(h)
How it was run: as §1

[14] = biological target: panel of human kinases (kinase named in endpoint) (Homo sapiens, UniProt Q14680); settings: 10 µM; read-out: Activity (%), MELK(h)
panel of human kinases (kinase named in endpoint) (Homo sapiens, UniProt Q14680), sequence (Q14680 whole entry): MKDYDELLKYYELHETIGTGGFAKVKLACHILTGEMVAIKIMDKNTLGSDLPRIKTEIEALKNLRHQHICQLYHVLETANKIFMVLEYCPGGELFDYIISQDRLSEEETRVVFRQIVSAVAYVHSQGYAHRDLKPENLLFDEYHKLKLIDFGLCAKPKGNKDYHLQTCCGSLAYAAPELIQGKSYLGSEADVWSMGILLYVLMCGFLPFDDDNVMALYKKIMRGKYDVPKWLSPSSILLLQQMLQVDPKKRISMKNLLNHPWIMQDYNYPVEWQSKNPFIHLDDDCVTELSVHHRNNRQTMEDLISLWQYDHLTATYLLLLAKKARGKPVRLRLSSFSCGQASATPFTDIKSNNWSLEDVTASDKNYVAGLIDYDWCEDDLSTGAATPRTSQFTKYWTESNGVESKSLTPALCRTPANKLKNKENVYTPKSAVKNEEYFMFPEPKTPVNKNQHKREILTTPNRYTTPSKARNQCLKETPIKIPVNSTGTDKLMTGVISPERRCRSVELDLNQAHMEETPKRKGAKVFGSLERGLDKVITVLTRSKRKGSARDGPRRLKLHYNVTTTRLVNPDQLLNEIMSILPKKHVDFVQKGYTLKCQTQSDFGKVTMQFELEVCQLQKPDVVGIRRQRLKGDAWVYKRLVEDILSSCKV
How it was run: as §1

[15] = biological target: panel of human kinases (kinase named in endpoint) (Homo sapiens, UniProt Q15831); settings: 10 µM; read-out: Activity (%), LKB1(h)
How it was run: as §1

[16] = biological target: panel of human kinases (kinase named in endpoint) (Homo sapiens, UniProt Q16816); settings: 10 µM; read-out: Activity (%), PhKγ1(h)
How it was run: as §1

[17] = biological target: panel of human kinases (kinase named in endpoint) (Homo sapiens, UniProt Q6P2M8); settings: 10 µM; read-out: Activity (%), CaMKIß(h)
panel of human kinases (kinase named in endpoint) (Homo sapiens, UniProt Q6P2M8), sequence (Q6P2M8 whole entry): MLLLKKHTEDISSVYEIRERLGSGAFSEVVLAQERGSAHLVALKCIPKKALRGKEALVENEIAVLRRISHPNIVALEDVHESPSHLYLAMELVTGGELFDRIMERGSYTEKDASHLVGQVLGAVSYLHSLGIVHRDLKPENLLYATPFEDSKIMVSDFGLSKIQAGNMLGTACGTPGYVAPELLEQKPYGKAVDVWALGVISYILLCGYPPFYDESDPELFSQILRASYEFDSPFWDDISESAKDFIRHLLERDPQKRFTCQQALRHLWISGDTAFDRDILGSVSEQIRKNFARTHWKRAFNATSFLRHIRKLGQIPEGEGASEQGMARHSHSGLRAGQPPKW
How it was run: as §1

[18] = biological target: panel of human kinases (kinase named in endpoint) (Homo sapiens, UniProt Q7L7X3); settings: 10 µM; read-out: Activity (%), TAO1(h)
How it was run: as §1

[19] = biological target: panel of human kinases (kinase named in endpoint) (Homo sapiens, UniProt Q8IVH8); settings: 10 µM; read-out: Activity (%), MAP4K3(h)
How it was run: as §1

[20] = biological target: panel of human kinases (kinase named in endpoint) (Homo sapiens, UniProt Q8N568); settings: 10 µM; read-out: Activity (%), DCAMKL2(h)
How it was run: as §1

[21] = biological target: panel of human kinases (kinase named in endpoint) (Homo sapiens, UniProt Q92772); settings: 10 µM; read-out: Activity (%), CDKL2(h)
panel of human kinases (kinase named in endpoint) (Homo sapiens, UniProt Q92772), sequence (Q92772 whole entry): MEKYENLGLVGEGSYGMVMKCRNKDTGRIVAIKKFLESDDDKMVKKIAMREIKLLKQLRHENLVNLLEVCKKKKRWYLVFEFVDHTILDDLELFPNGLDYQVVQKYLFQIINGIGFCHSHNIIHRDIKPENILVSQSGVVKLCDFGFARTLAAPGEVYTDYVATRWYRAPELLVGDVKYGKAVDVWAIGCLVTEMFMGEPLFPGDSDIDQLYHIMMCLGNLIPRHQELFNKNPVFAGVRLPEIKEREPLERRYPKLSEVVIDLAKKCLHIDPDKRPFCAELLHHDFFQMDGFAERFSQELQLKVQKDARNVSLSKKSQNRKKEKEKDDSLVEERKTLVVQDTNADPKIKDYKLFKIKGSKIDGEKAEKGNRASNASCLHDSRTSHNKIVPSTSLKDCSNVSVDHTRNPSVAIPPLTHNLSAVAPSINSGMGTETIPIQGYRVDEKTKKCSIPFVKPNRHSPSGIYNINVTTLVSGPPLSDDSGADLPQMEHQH
How it was run: as §1

[22] = biological target: panel of human kinases (kinase named in endpoint) (Homo sapiens, UniProt Q96QT4); settings: 10 µM; read-out: Activity (%), ChaK1(h)
How it was run: as §1

[23] = biological target: panel of human kinases (kinase named in endpoint) (Homo sapiens, UniProt Q9NY57); settings: 10 µM; read-out: Activity (%), STK32B(h)
panel of human kinases (kinase named in endpoint) (Homo sapiens, UniProt Q9NY57), sequence (Q9NY57 whole entry): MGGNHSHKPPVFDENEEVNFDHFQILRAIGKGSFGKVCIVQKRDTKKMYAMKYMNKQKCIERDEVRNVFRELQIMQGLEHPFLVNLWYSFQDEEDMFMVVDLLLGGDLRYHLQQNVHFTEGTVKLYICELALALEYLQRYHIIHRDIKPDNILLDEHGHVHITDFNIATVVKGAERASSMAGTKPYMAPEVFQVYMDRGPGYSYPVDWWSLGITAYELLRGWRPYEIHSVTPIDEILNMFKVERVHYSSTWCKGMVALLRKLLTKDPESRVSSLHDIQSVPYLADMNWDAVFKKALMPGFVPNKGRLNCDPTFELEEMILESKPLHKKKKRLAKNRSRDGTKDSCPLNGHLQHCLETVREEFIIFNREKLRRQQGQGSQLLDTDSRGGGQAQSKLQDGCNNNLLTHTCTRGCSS
How it was run: as §1

[24] = biological target: panel of human kinases (kinase named in endpoint) (Homo sapiens, UniProt Q9NZJ5); settings: 10 µM; read-out: Activity (%), PEK(h)
How it was run: as §1

[25] = biological target: panel of human kinases (kinase named in endpoint) (Homo sapiens, UniProt Q9UQM7); settings: 10 µM; read-out: Activity (%), CaMKIIα(h)
How it was run: as §1

Compound `CC(C)C(=O)Nc1nc2cc(-c3ccc4c(c3)c(C(=O)NC(C)c3ccccc3)cn4C)ccn2n1` (stereo not drawn) [RI-962] has an activity at 10 µM [1] of 95%, an activity at 10 µM [2] of 107% and an activity at 10 µM [3] of 115%. The activity at 10 µM [4] was 104%, the activity at 10 µM ([5]; read-out: Activity (%), IR(h)) was 103% and the activity at 10 µM ([5]; read-out: Activity (%), IR(h), activated) was 89%. The activity at 10 µM ([6]; read-out: Activity (%), Lck(h)) was 137%, the activity at 10 µM ([6]; read-out: Activity (%), Lck(h) activated) was 81% and the activity at 10 µM [7] was 65%. The activity at 10 µM [8] was 100%, the activity at 10 µM [9] was 94% and the activity at 10 µM [10] was 100%. For the same compound, the activity at 10 µM [11] was 109%, the activity at 10 µM [12] was 89% and the activity at 10 µM [13] was 92%. The activity at 10 µM [14] was 95%, the activity at 10 µM [15] was 105% and the activity at 10 µM [16] was 98%. The activity at 10 µM [17] was 100%, the activity at 10 µM [18] was 81% and the activity at 10 µM [19] was 85%. For the same compound, the activity at 10 µM [20] was 132%, the activity at 10 µM [21] was 77% and the activity at 10 µM [22] was 85%. For the same compound, the activity at 10 µM [23] was 85%, the activity at 10 µM [24] was 94% and the activity at 10 µM [25] was 93%.
